In the NIST ThermoML archive (doi:10.1021/acs.jced.5b00018):

Legend:
[1] = refractive index (Na D-line) (dimensionless); wn = mass fraction of the nth substance listed; conditions: 100 kPa, Liquid, Standard Abbe refractometry
[2] = refractive index (Na D-line) (dimensionless); conditions: 100 kPa, Liquid, Standard Abbe refractometry

O [water] + [Cl-].[Na+]
[1], w2 = 0
Conditions | refractive index
293.15 K | 1.3335
298.15 K | 1.333
303.15 K | 1.3323
308.15 K | 1.332
313.15 K | 1.3316
318.15 K | 1.3312

O [water]
[2]
Conditions | refractive index
293.15 K | 1.3335
298.15 K | 1.333
303.15 K | 1.3323
308.15 K | 1.332
313.15 K | 1.3316
318.15 K | 1.3312

CCOC(C)=O [ethyl acetate] + O
refractive index, [1]
Conditions | 293.15 K | 298.15 K | 303.15 K | 308.15 K | 313.15 K | 318.15 K
w1 = 0.009 | 1.3341 | 1.3335 | 1.3331 | 1.3327 | 1.3321 | 1.3317
w1 = 0.027 | 1.3352 | 1.3348 | 1.3342 | 1.3337 | 1.3332 | 1.3326
w1 = 0.045 | 1.3368 | 1.3364 | 1.3358 | 1.3353 | 1.3346 | 1.3342
w1 = 0.064 | 1.3384 | 1.338 | 1.3377 | 1.3368 | 1.3358 | 1.3352
w1 = 0.082 | 1.3391 | 1.3388 | 1.3383 | 1.3378 | 1.3373 | 1.3365

O [water] + CCOC(C)=O
[1], w2 = 0
Conditions | refractive index
293.15 K | 1.3335
298.15 K | 1.333
303.15 K | 1.3323
308.15 K | 1.332
313.15 K | 1.3316
318.15 K | 1.3312

[Cl-].[K+] [potassium chloride] + O
refractive index, [1]
Conditions | 293.15 K | 298.15 K | 303.15 K | 308.15 K | 313.15 K | 318.15 K
w1 = 0.01 | 1.3349 | 1.3345 | 1.334 | 1.3335 | 1.333 | 1.332
w1 = 0.05 | 1.3405 | 1.3401 | 1.3396 | 1.339 | 1.3384 | 1.3379
w1 = 0.1 | 1.3486 | 1.348 | 1.3476 | 1.347 | 1.3464 | 1.346
w1 = 0.15 | 1.3577 | 1.3571 | 1.3566 | 1.356 | 1.3554 | 1.355

[Ca+2].[Cl-].[Cl-] [calcium chloride] + O
refractive index, [1]
Conditions | 293.15 K | 298.15 K | 303.15 K | 308.15 K | 313.15 K | 318.15 K
w1 = 0.01 | 1.3356 | 1.3353 | 1.3349 | 1.3344 | 1.3339 | 1.3331
w1 = 0.05 | 1.3442 | 1.3437 | 1.3431 | 1.3426 | 1.342 | 1.3414
w1 = 0.1 | 1.3568 | 1.3561 | 1.3555 | 1.3551 | 1.3546 | 1.3539
w1 = 0.15 | 1.3689 | 1.3686 | 1.368 | 1.3671 | 1.3667 | 1.3662
w1 = 0.2 | 1.3818 | 1.3814 | 1.3807 | 1.3802 | 1.3795 | 1.3789
w1 = 0.25 | 1.3945 | 1.3943 | 1.394 | 1.3933 | 1.3926 | 1.392

O [water] + OC[C@H]1O[C@H](O)[C@H](O)[C@@H](O)[C@@H]1O
[1], w2 = 0
Conditions | refractive index
293.15 K | 1.3335
298.15 K | 1.333
303.15 K | 1.3323
308.15 K | 1.332
313.15 K | 1.3316
318.15 K | 1.3312

[Cl-].[Na+] [sodium chloride] + O
refractive index, [1]
Conditions | 293.15 K | 298.15 K | 303.15 K | 308.15 K | 313.15 K | 318.15 K
w1 = 0.01 | 1.3365 | 1.3359 | 1.3354 | 1.3346 | 1.3339 | 1.3333
w1 = 0.05 | 1.3434 | 1.3428 | 1.3422 | 1.3414 | 1.3407 | 1.3398
w1 = 0.1 | 1.3521 | 1.3514 | 1.3508 | 1.3502 | 1.3495 | 1.3485
w1 = 0.15 | 1.361 | 1.3604 | 1.3596 | 1.359 | 1.358 | 1.3572
w1 = 0.2 | 1.3702 | 1.3692 | 1.3683 | 1.3678 | 1.367 | 1.3661
w1 = 0.25 | 1.3795 | 1.3788 | 1.378 | 1.3773 | 1.3767 | 1.3757

O [water] + [Cl-].[K+]
[1], w2 = 0
Conditions | refractive index
293.15 K | 1.3335
298.15 K | 1.333
303.15 K | 1.3323
308.15 K | 1.332
313.15 K | 1.3316
318.15 K | 1.3312

O [water] + [Ca+2].[Cl-].[Cl-]
[1], w2 = 0
Conditions | refractive index
293.15 K | 1.3335
298.15 K | 1.333
303.15 K | 1.3323
308.15 K | 1.332
313.15 K | 1.3316
318.15 K | 1.3312

OC[C@H]1O[C@H](O)[C@H](O)[C@@H](O)[C@@H]1O [α-D-glucose] + O
refractive index, [1]
Conditions | w1 = 0.01 | w1 = 0.05 | w1 = 0.1 | w1 = 0.15 | w1 = 0.2 | w1 = 0.3 | w1 = 0.4 | w1 = 0.5
293.15 K | 1.336 | 1.3412 | 1.3481 | 1.3553 | 1.3623 | 1.3775 | 1.3947 | 1.4119
298.15 K | 1.3355 | 1.3406 | 1.3475 | 1.3548 | 1.3617 | 1.3768 | 1.3939 | 1.4106
303.15 K | 1.3349 | 1.3401 | 1.3469 | 1.3542 | 1.361 | 1.3763 | 1.3932 | 1.41
308.15 K | 1.3345 | 1.3395 | 1.3463 | 1.3535 | 1.3604 | 1.3757 | 1.3925 | 1.4098
313.15 K | 1.3337 | 1.3388 | 1.3455 | 1.3527 | 1.3596 | 1.3747 | 1.3919 | 1.4086
318.15 K | 1.3329 | 1.3379 | 1.3447 | 1.3519 | 1.3588 | 1.3739 | 1.3907 | 1.4073
